Results reported in patent publication US7910559B2, “Decladinosyl-macrolides with anti-inflammatory activity” (GlaxoSmithKline istrazivacki centar Zagreb d.o.o., priority 2005, dated 2011).
Where two headings read alike, the source gives them in different places.

Assays:
Format in all cases: cell-based
human TNF-α = experiment: Inhibition of TNF-α production by stimulated human peripheral blood leukocytes in vitro (ELISA); details: Homo sapiens, Leukocyte, PBL, read-out: Percentage of inhibition of TNF-α production; for inhibition at 10 µM: compound 10 μM; for inhibition at 50 µM: compound 50 μM
Outline: (§1)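 Human PBL from healthy donors preincubated 2 h at 37 °C with compound, then stimulated overnight with 2 μg/mL LPS, 1 μg/mL PMA or 120 μg/mL zymosan. Supernatant cytokines measured by sandwich ELISA. % inhibition is relative to stimulated, untreated cells.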

human IL-1β = experiment: Inhibition of IL-1β production by stimulated human peripheral blood leukocytes in vitro (ELISA); details: Homo sapiens, Leukocyte, PBL, read-out: Percentage of inhibition of IL-1β production; for inhibition at 10 µM: compound 10 μM; for inhibition at 50 µM: compound 50 μM
Outline: as §1

THP-1 = details: human, 24 h
Outline: (§2)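 MTT cytotoxicity read-out: cells were exposed to compound at 50 μM and 12.5 μM for 24 hours at 37° C in RPMI, then MTT was added for 0.5-2 hours. Formazan absorbance at 490 nm gave the percentage of viable cells relative to untreated cells.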

Hep G2 = details: human, 24 h
Outline: as §2

A549 = details: human, 24 h
Outline: as §2

[1] = system: human peripheral blood mononuclear cells (PBMC); experiment: Human peripheral blood mononuclear cell proliferation in vitro ((3H)thymidine incorporation); details: Homo sapiens, PBMC, read-out: Percentage of inhibition of proliferation of stimulated PBMC; for inhibition at 10 µM: compound 10 μM; for inhibition at 50 µM: compound 50 μM
Procedure: Substances, used in in vitro experiments, were dissolved in dimethyl sulfoxide (DMSO) (Kemika, Croatia) at concentrations of 50 mM and 10 mM and were further diluted to the final concentrations of […] in 1 mL Dulbecco's modified Eagle medium (DMEM) supplemented with 1% heat inactivated fetal bovine serum (FBS), 1% glutamax, 50 U/ml penicillin, 50 μg/ml streptomycin and 2.5 μg/mL Fungizone (amphotericin B). Media and all media supplements were purchased from Gibco, Australia, except FBS that was from Sigma, USA.
Heparinized peripheral blood was obtained from healthy donors, and peripheral blood mononuclear cells (PBMC) were isolated by Histopaque 1077 (Sigma, USA) density centrifugation at 400 g for 30 minutes. Collected PBMC were centrifuged in plasma at 400 g/10 min, resuspended and washed in RPMI 1640 (Institute of Immunology, Croatia) by centrifugation.
Influence of substances at two different concentrations (50 μM and 10 μM) on proliferation of human peripheral blood mononuclear cells (PBMC) was assessed.
Heparinized peripheral blood was obtained from healthy donors, and PBMC were isolated by Histopaque 1077 (Sigma, USA) density centrifugation at 400 g for 30 minutes. 5×10^4 cells/well were cultured for 3 days in the RPMI medium as described above, in the presence (positive control) or absence (negative control) of stimulators [PHA (2.5 μg/mL) (Sigma, USA) or both PMA (10 ng/mL) (Sigma, USA) and ionomycin (500 ng/mL) (Calbiochem, USA)] and tested substances at 37° C. in 5% CO2 and 90% humidity. The cells were pulsed with 1 μCi of (^3H)thymidine (Amersham, USA) per well during the last 18 h of the cultures and were harvested on a 96-well filter (Packard Bioscience, USA) with a multiple cell harvester (Packard, USA). The incorporation of (^3H)thymidine in activated cells was measured by TopCount NXT (Packard, USA).
Inhibition of cell proliferation (as a percentage) was calculated using the following formula: % inhibition=(1−(^3H)thymidine incorporation expressed in counts per minute (cpm) in sample/(3H)thymidine incorporation expressed in cpm in positive control)×100 where “positive control” refers to stimulated samples not treated with substances.

human IL-6 = experiment: Inhibition of IL-6 production by stimulated human peripheral blood leukocytes in vitro (ELISA); details: Homo sapiens, Leukocyte, PBL, read-out: Percentage of inhibition of IL-6 production; for inhibition at 10 µM: compound 10 μM; for inhibition at 50 µM: compound 50 μM
Outline: as §1

human IL-8 = experiment: Inhibition of IL-8 production by stimulated human peripheral blood leukocytes in vitro (ELISA); details: Homo sapiens, Leukocyte, PBL, read-out: Percentage of inhibition of IL-8 production; for inhibition at 10 µM: compound 10 μM; for inhibition at 50 µM: compound 50 μM
Outline: as §1

Question: For `CC[C@H]1OC(=O)[C@H](C)[C@@H](O[C@H]2C[C@@](C)(OC)[C@@H](O)[C@H](C)O2)[C@H](C)[C@@H](O[C@@H]2O[C@H](C)C[C@H](N(C)C)[C@H]2O)[C@](C)(OC)C[C@@H](C)C(=O)[C@H](C)[C@@H](O)[C@]1(C)O` [clarithromycin, reference compound], which inhibition at 10 µM (human TNF-α; LPS stimulation) is on record?
Answer: Its inhibition at 10 µM is 0%.

Question: What about the inhibition at 50 µM (human TNF-α; LPS stimulation) of the same compound?
Answer: The inhibition at 50 µM was 0%.

Question: What about the inhibition at 10 µM (human TNF-α; PMA stimulation) of the same compound?
Answer: Its inhibition at 10 µM is 0%.

Question: And the inhibition at 50 µM (human TNF-α; PMA stimulation)?
Answer: The inhibition at 50 µM was 0%.

Question: What about the inhibition at 10 µM (human TNF-α; zymosan stimulation) of the same compound?
Answer: Its inhibition at 10 µM is 0%.

Question: And the inhibition at 50 µM (human TNF-α; zymosan stimulation)?
Answer: The inhibition at 50 µM was 0%.

Question: And the inhibition at 10 µM (human IL-1β; LPS stimulation)?
Answer: The inhibition at 10 µM was 0%.

Question: And the inhibition at 50 µM (human IL-1β; LPS stimulation)?
Answer: Its inhibition at 50 µM is 0%.

Question: And the inhibition at 10 µM (human IL-1β; PMA stimulation)?
Answer: Its inhibition at 10 µM is 26%.

Question: And the inhibition at 50 µM (human IL-1β; PMA stimulation)?
Answer: Its inhibition at 50 µM is 33%.

Question: And the inhibition at 10 µM (human IL-1β; zymosan stimulation)?
Answer: Its inhibition at 10 µM is 36%.

Question: And the inhibition at 50 µM (human IL-1β; zymosan stimulation)?
Answer: The inhibition at 50 µM was 59%.

Question: And the “Percentage of viable cells after treatment” value (shortened to “Percentage of viable cells”) (THP-1; 12.5 μM)?
Answer: Its value is 100%.

Question: What about the “Percentage of viable cells” value (THP-1; 50 μM) of the same compound?
Answer: The value was >95%.

Question: What about the “Percentage of viable cells” value (Hep G2; 12.5 μM) of the same compound?
Answer: The value was 100%.

Question: And the “Percentage of viable cells” value (Hep G2; 50 μM)?
Answer: Its value is 100%.

Question: What about the “Percentage of viable cells” value (A549; 12.5 μM) of the same compound?
Answer: The value was 100%.

Question: What about the “Percentage of viable cells” value (A549; 50 μM) of the same compound?
Answer: The value was 100%.

Question: And the inhibition at 10 µM ([1]; PHA stimulation)?
Answer: Its inhibition at 10 µM is 0%.

Question: What about the inhibition at 50 µM ([1]; PHA stimulation) of the same compound?
Answer: Its inhibition at 50 µM is 7%.

Question: What about the inhibition at 10 µM ([1]; PMA + ionomycin stimulation) of the same compound?
Answer: The inhibition at 10 µM was 9%.

Question: What about the inhibition at 50 µM ([1]; PMA + ionomycin stimulation) of the same compound?
Answer: The inhibition at 50 µM was 14%.

Question: What about the inhibition at 10 µM (human IL-6; LPS stimulation) of the same compound?
Answer: Its inhibition at 10 µM is 11%.

Question: And the inhibition at 50 µM (human IL-6; LPS stimulation)?
Answer: Its inhibition at 50 µM is 0%.

Question: And the inhibition at 10 µM (human IL-6; PMA stimulation)?
Answer: The inhibition at 10 µM was 0%.

Question: What about the inhibition at 50 µM (human IL-6; PMA stimulation) of the same compound?
Answer: Its inhibition at 50 µM is 0%.

Question: And the inhibition at 10 µM (human IL-6; zymosan stimulation)?
Answer: The inhibition at 10 µM was 28%.

Question: What about the inhibition at 50 µM (human IL-6; zymosan stimulation) of the same compound?
Answer: The inhibition at 50 µM was 0%.

Question: What about the inhibition at 10 µM (human IL-8; LPS stimulation) of the same compound?
Answer: Its inhibition at 10 µM is 23%.

Question: What about the inhibition at 50 µM (human IL-8; LPS stimulation) of the same compound?
Answer: Its inhibition at 50 µM is 0%.

Question: And the inhibition at 10 µM (human IL-8; PMA stimulation)?
Answer: The inhibition at 10 µM was 33%.

Question: What about the inhibition at 50 µM (human IL-8; PMA stimulation) of the same compound?
Answer: Its inhibition at 50 µM is 0%.

Question: And the inhibition at 10 µM (human IL-8; zymosan stimulation)?
Answer: Its inhibition at 10 µM is 0%.

Question: What about the inhibition at 50 µM (human IL-8; zymosan stimulation) of the same compound?
Answer: The inhibition at 50 µM was 0%.
